Results published in US9611223B2, “3-aryl-5-substituted-isoquinolin-1-one compounds and their therapeutic use” (INSTITUTE OF CANCER RESEARCH: ROYAL CANCER HOSPITAL (THE), priority 2013, dated 2017).
Like-named read-outs stand apart in the source and are kept apart here.

How the values were obtained:
[1] = biological target: T1, TNKS1 (Homo sapiens, UniProt O95271, M1266I); test: TNKS1/PARP Biochemical Assay
T1 construct: expresses the active PARP domain of TNKS1 as a polyhistidine tagged protein; made in house; host or cells: E. coli Rosetta2(DE3)
Experimental: TNKS1/PARP Biochemical Assay
Tankyrase activity was assayed using a 96-well format HT Universal Chemiluminescent PARP Assay Kit (Trevigen, Inc, cat. no. 4676-096-K) according to the manufacturer's instructions. In short, tankyrase/PARP activity is quantified by the incorporation of biotinylated nicotinamide adenine dinucleotide (biotin-NAD^+) onto the immobilised pseudo substrate, Histone. The extent of poly(Biotin-ADP)ribosylation (PARylation) in the presence of increasing dose of inhibitor is then quantified by binding of streptavidin conjugated horse radish peroxidase (strep-HRP) followed by chemiluminescent detection.
Prior to assay initiation, inhibitor stocks were prepared in aqueous DMSO (10% (v/v)) from 5 millimolar (mM) stock in 100% DMSO (Sigma Aldrich, cat. no. 265855) as 10× concentrations. For the primary assay (i.e., single dose at 1 micromolar (μM) final concentration) this corresponded to 10 μM in 10% DMSO. For IC50 determination, this corresponded to 100 μM, 30 μM, 10 μM, 3.0 μM, 1.0 μM, 0.30 μM, 0.10 μM and 0 μM in 10% DMSO for final concentrations of 10 μM, 3.0 μM, 1.0 μM, 0.30 μM, 0.10 μM, 0.030 μM, 0.010 μM, and 0 μM with 1% (v/v) final DMSO. The assay was initiated by the addition of 10× inhibitor (5 microliters (μL)) or 10% aqueous DMSO (5 μL) to triplicate wells. Twenty microliters of diluted TNKS1 protein (200 nanomolar (nM) final conc.) in PARP buffer (Trevigen, Inc, cat. no. 4671-096-02) was added to each histone coated well, which was previously hydrated with PARP buffer. Triplicate wells with 1% DMSO/buffer alone (no enzyme) were also added as a measure of assay ‘noise’. Positive control for PARP inhibition included the addition of 4-amino-1,8-naphthalimide (Sigma Aldrich, cat. no A0966) in corresponding doses.
The mixture was incubated for 10 minutes at room temperature and the PARylation reaction initiated by the addition of PARP cocktail (25 μL, Trevigen, Inc) containing biotin-NAD^+ (Trevigen, Inc, cat. no. 4670-500-01), activated DNA (Trevigen, Inc, cat. no. 4671-096-06) and PARP buffer. The reaction was incubated for 1.5 hours (for TNKS1) or 1 hour (for PARP1) at room temperature. The reaction mixture was then removed by aspiration and the wells washed (3×200 μL) with phosphate buffered saline containing Triton X-100 (0.1% (v/v), Sigma Aldrich cat. no. T8787). The wells were then washed (3×200 μL) with phosphate buffered saline and then incubated with strep-HRP (50 μL, Trevigen, Inc, cat. no. 4800-30-06) in strep-diluent (1:500 dilution, Trevigen Inc, cat. no. 4671-096-04) for 1 hour at room temperature. The Strep-HRP mixture was then aspirated and the wells washed (3×200 μL) with phosphate buffered saline containing Triton X-100 (0.1% (v/v)) followed by phosphate buffered saline (3×200 μL) and then incubated with PeroxyGlow™ reagent (100 μL, Trevigen, Inc, cat. nos. 4675-096-01, 4675-096-02, room temperature, mixed 1:1).
The amount of light emitted as a result of the peroxidase-chemiluminescent reagent reaction was in proportion to the extent of poly(Biotin-ADP)ribosylation and was immediately measured with a Victor^2 plate reader (Perkin Elmer, luminescence detection assay, luminescent units described as ‘Counts Per Second’ (CPS)). The data were normalised to the DMSO control after subtraction of ‘noise’ and was expressed as % PARP activity as a function of inhibitor dose. Inhibition was expressed as 100%−(% PARP activity). Dose response curves used to determine IC50 values were Log transformed and analysed by non-linear regression analysis (variable slope) using Prism (GraphPad Software, Inc) and were presented as IC50 with 95% confidence interval to determine relative potency.
Tankyrase1 (pNIC-Bsa4-TNKS1^PARP) expression construct was obtained from the Structural Genomics Consortium (SGC) and expresses the active PARP domain of TNKS1 as a polyhistidine tagged protein. […]

[2] = system: COLO320DM cells; test: Tumour Cell Inhibition Assay (COLO320DM cells); assay type: cell-based; details: Homo sapiens, COLO 320DM, 120 h, five day exposure, read-out: cell inhibitory SF50 (COLO320DM)
Experimental: (§1) Tumour Cell Inhibition in Colorectal Tumour Cells
(§2) In order to determine the efficacy of acute dosing of putative TNKS inhibitors, five day exposure cell viability assays were carried out. This included the sparse seeding of cells in a 96-well plate followed by continuous dosing of cells over a five day period.
(§3) Appropriate cell lines (HT55, COLO320DM and SW620) were seeded at 500 cells/well in a 96-well plate in MEM (HT55), RPMI (COLO320DM) or DMEM (SW620) supplemented with FBS. After overnight incubation, cells were treated with the appropriate putative TNKS inhibitor in 6 or 10 concentrations ranging from 0 μM to 10 μM at 0.2% final DMSO concentration in appropriate media supplemented with 10% or 0.5% FBS. Dosages were carried out in triplicate. Termination of the assay and measurement of cell viability was achieved by the use of Cell Titre Glo reagent and luminescence measurement on an appropriate plate reader.
(§4) Dose response curves used to determine SF50 values were Log transformed and analysed by non-linear regression analysis (variable slope) using Prism (GraphPad Software, Inc).

[3] = system: Wnt signalling; test: Wnt-Luciferase Reporter Assay; assay type: cell-based; details: DLD1-Wnt-Luc cells, 20-22 hours
Experimental: Wnt-Luciferase Reporter Assay
A Wnt dependent cell line (i.e., DLD1 colorectal adenocarcinoma cell line) was transduced with replication incompetent VSV-g pseudotyped lentiviral particles expressing the firefly luciferase gene under the control of minimal cytomegalovirus (mCMV) promoter and tandem repeats of the TCF/LEF transcriptional response element.
DLD1-Wnt-Luc cells were seeded (5000 cells/well) in a 96-well plate (Greiner Bio-One, cat. no. 655098) in Dubelco's Modified Eagle Medium (DMEM, SFBCO/Invitrogen, cat no. 41965-039) supplemented with Fetal Bovine Serum (FBS, 10%, SFBCO/Invitrogen, cat no. 10108-165). After overnight incubation, the media was replaced with OptiMEM (SFBCO/Invitrogen, cat no. 11058-021) supplemented with FBS (0.5%) and non-essential amino acids (1%, SFBCO/Invitrogen, cat no. 11140-035) and the appropriate putative TNKS inhibitor at a final concentration of 10 μM, 3 μM, 1 μM, 0.30 μM, 0.10 μM, 0.030 μM, 0.010 μM and 0 μM with 1% (v/v) final DMSO in double-triplicate wells. Positive control includes the use of XAV-939 (Maybridge, FisherScientific, 3,5,7,8-tetrahydro-2-[4-(trifluoromethyl)phenyl]-4H-thiopyrano[4,3-d]pyrimidin-4-one, cat. no. RF03920, see: Huang et al., Nature, 2009, Vol. 461, pp. 614-620). Cells were incubated for 20-22 hours before assaying for luciferase (first set of triplicates: Wnt activation) and viability (second set of triplicates: cell survival for data normalisation vs Wnt-activation) using ONE-Glo (Promega, cat. no. E6110) and CellTiter-Glo (Promega, cat. no. G7570) reagents consecutively. The assay was measured using a Victor^2 plate reader. The data were normalised to the DMSO control and were expressed as % Wnt activity as a function of inhibitor dose. Dose response curves used to determine IC50 values were Log transformed and analysed by non-linear regression analysis (variable slope) using Prism (GraphPad Software, Inc).

[4] = system: HT55 cells; test: Tumour Cell Inhibition Assay (HT55 cells); assay type: cell-based; details: Homo sapiens, HT55, 120 h, read-out: cell inhibitory SF50 (HT55)
Experimental: as §1, §2, §3, §4

[5] = Tumour Cell Inhibition Assay, five day exposure

T1 sequence (O95271 1112-1317 M1266I): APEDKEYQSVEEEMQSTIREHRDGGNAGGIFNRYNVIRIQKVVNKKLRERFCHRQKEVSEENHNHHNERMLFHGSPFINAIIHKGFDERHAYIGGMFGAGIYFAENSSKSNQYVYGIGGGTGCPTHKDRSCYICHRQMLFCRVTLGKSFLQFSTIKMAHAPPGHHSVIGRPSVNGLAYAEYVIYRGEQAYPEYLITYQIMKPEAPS

| SMILES | IC50 [1] [nM] | IC50 [2] [nM] | IC50 [3] [nM] | IC50 [4, 5] [nM] | IC50 [4] [nM] |
| --- | --- | --- | --- | --- | --- |
| N#Cc1cccc2c(=O)[nH]c(-c3ccc(CN4CC5CCC(C4)N5)cc3)cc12 [IQ-003] | < 100 | < 5000 | < 300 | – | – |
| N#Cc1cccc2c(=O)[nH]c(-c3ccc(C(=O)N4CCNCC4)cc3)cc12 [IQ-004, 1-Oxo-3-[4-(piperazine-1-carbonyl)-phenyl]-1,2-dihydro-isoquinoline-5-carbonitrile] | < 50 | – | – | < 5000 | – |
| CN1CCC(N(C)C(=O)c2ccc(-c3cc4c(C#N)cccc4c(=O)[nH]3)cc2)CC1 [IQ-005] | < 50 | < 5000 | < 300 | – | – |
| N#Cc1cccc2c(=O)[nH]c(-c3ccc(Cn4ccnc4CO)cc3)cc12 [IQ-015, 3-[4-(2-Hydroxymethyl-imidazol-1-ylmethyl)-phenyl]-1-oxo-1,2-dihydro-isoquinoline-5-carbonitrile] | < 50 | < 5000 | – | < 5000 | – |
| N#Cc1cccc2c(=O)[nH]c(-c3ccc(Cn4ccnc4N)cc3)cc12 [IQ-018] | < 50 | < 5000 | < 300 | < 5000 | – |
| COCCN1CCN(C(=O)c2ccc(-c3cc4c(C#N)cccc4c(=O)[nH]3)cc2)CC1 [IQ-035] | < 50 | < 5000 | < 300 | – | – |
| CN1CCN(C(=O)Cc2ccc(-c3cc4c(C#N)cc(F)cc4c(=O)[nH]3)cc2)CC1 [IQ-036] | < 50 | < 5000 | < 300 | – | – |
| CN1CCN(C(=O)Cc2ccc(-c3cc4c(C#N)cccc4c(=O)[nH]3)cc2)CC1 [IQ-037] | < 50 | < 5000 | < 300 | – | – |
| Cc1nnc(C2CCN(Cc3ccc(-c4cc5c(C#N)cccc5c(=O)[nH]4)cc3)CC2)o1 [IQ-041] | < 50 | – | < 300 | – | < 5000 |
| Cc1nnc(NCc2ccc(-c3cc4c(C#N)cccc4c(=O)[nH]3)cc2)o1 [IQ-045, 3-{4-[5-Methyl-[1,3,4-oxadiazol-2-ylamino)methyl]phenyl}-1-oxo-1,2-dihydroisoquinoline-5-carbonitrile] | < 50 | < 5000 | < 300 | – | – |
| N#Cc1cccc2c(=O)[nH]c(-c3ccc(CN4CCNCC4)cc3)cc12 [IQ-050, 1-Oxo-3-(4-piperazin-1-ylmethyl-phenyl)-1,2-dihydro-isoquinoline-5-carbonitrile] | – | – | < 300 | – | – |
| N#Cc1cccc2c(=O)[nH]c(-c3ccc(N4CCNCC4)cc3)cc12 [IQ-054] | < 50 | – | – | – | < 5000 |

Further lines, with some results ahead:

| IC50 [1] [nM] | IC50 [2] [nM] | IC50 [3] [nM] | IC50 [4, 5] [nM] | SMILES | IC50 [4] [nM] |
| --- | --- | --- | --- | --- | --- |
| < 50 | – | < 300 | – | N#Cc1cccc2c(=O)[nH]c(-c3cnc(N4CCN(C(=O)C5CC5)CC4)nc3)cc12 [IQ-007, 3-[2-(4-Cyclopropanecarbonyl-piperazin-1-yl)-pyrimidin-5-yl]-1-oxo-1,2-dihydro-isoquinoline-5-carbonitrile] | – |
| < 50 | – | < 300 | – | N#Cc1cccc2c(=O)[nH]c(-c3ccc(Cn4cccn4)cc3)cc12 [IQ-021] | – |
| < 100 | < 5000 | < 300 | – | N#Cc1cccc2c(=O)[nH]c(-c3ccc(Cn4nccn4)cc3)cc12 [IQ-027] | – |
| < 50 | < 5000 | – | < 5000 | CN1CCCN(Cc2ccc(-c3cc4c(C#N)cccc4c(=O)[nH]3)cc2)CC1 [IQ-048] | – |
| < 100 | < 5000 | < 300 | – | N#Cc1cccc2c(=O)[nH]c(-c3ccc(N4CCNCC4)nc3)cc12 [IQ-052] | – |
